Read-outs that look alike come from different tables or passages of the source.
How the values were obtained:
[1] = tested on: genitals (both persons, during intercourse); test: Irritation test of lubricant during intercourse / human volunteers; type: in vivo; settings: human, in vivo
From the text: Subsequently, the gel formulation was applied topically and used as a sexual lubricant during intercourse. Both people wiped off the excess with a tissue after intercourse, but neither person showered or washed off the lubricant until the following day. It caused no irritation to either person.

[2] = cited from earlier work; for ionization rate: in aqueous solution; for Reported pK values: values below 2 refer to release of a single carboxy anion
forearm = test: Irritation test on forearm / skin; type: in vivo, human; settings: in vivo
Method: Zinc acetate was purchased from Pfaltz and Bauer (Waterbury, Connecticut). About 0.5 grams were mixed with several drops of distilled water at room temperature. […] The aqueous mixture was rubbed into an area about 3 cm in diameter on the forearm of […] and caused no irritation. Subsequently, about 0.5 grams of the salt were dissolved in a few drops of distilled water, then 10 ml K-Y Lubricating Jelly (sold by Johnson and Johnson, New Brunswick, N.J.) was added to form a gel mixture containing about 5% zinc acetate (w/v). This commercially available mixture contains purified water, hydroxyethyl-cellulose as a thickening agent, glycerin as a lubricant, glucono-delta-lactate to prevent crystallization, chlorhexidine gluconate as a preservative, and sodium hydroxide to reduce the acidity.

[3] = Acidity tests: pH of 5% w/v zinc salt solutions; settings: for pH of solution (rounded) / pH of solution: 5% w/v in distilled deionized water; for pH of solution: 0.05 subtracted from meter reading, approximately accurate
vagina = test: Irritation test in shallow region of the vagina (volunteer); type: in vivo, human; settings: human, in vivo
male genitals = test: Irritation test on male genitals / urethra; settings: in vivo
Method: In all examples, the test subjects were a monogamous married couple, free of genital herpes and all other known sexually transmitted viruses.
The mixture of zinc acetate in K-Y Lubricating Jelly was tested on the male genitals, passively at first and then with active rubbing.
About 0.5 grams were dissolved in several drops of distilled water and tested on the forearm and genitals.

[4] = tested on: genitals (both persons, during intercourse); settings: cited from earlier work
sperm cells = settings: undiluted semen; Eliasson 1971, Paz et al 1977; cited from earlier work
H-9 lymphocytes = test: Toxicity to lymphocytes; type: cell-based; settings: at the concentrations of interest
Method: In a first set of tests, 20 mg of zinc acetate powder (ZnAc, MW 183.4) was mixed in 1 ml RPMI cell culture medium (Whittaker Corp.). This 2% (w/v) salt mixture contained 7 mg/ml elemental Zn. […] Therefore, a small quantity of HCl was added until the mixture became clear; the pH was about 5.5. The Zn concentration was reduced by half (and the pH was raised somewhat) when an equal volume (1 ml) of cell-free high-titer HIV-1 viral stock was added. The zinc/virus mixture was stirred and incubated for 2 hours at 37° C. (i.e., normal body temperature).
Following this first incubation step, the zinc/virus mixtures were diluted at 1:10, 1:30, and 1:100 ratios using culture medium, and aliquots were added to equal volumes of culture media containing H-9 lymphocytes that had been pretreated overnight with 2 μg/ml Polybreen. The lymphocyte mixtures were incubated for three hours at 37° C.; zinc concentrations during this step were 180, 60, and 18 μg/ml for the 1:10, 1:30, and 1:100 dilutions.
A 2 ml aliquot from each dilution was mixed with an equal volume of 3% ZnAc dissolved in sterile distilled water; after mixing, the zinc concentration was 5.3 mg/ml Zn. These mixtures were incubated for 2 hours, then diluted with culture medium at 1:30, 1:100, and 1:1000 to reduce the toxicity of the zinc to lymphocytes. Four ml of lymphocytes were mixed with 4 ml of each zinc/virus mixture. The zinc/virus/cell mixtures were incubated at 37° C. for 3 hours; zinc concentrations were 88, 27, and 2.7 μg/ml in the 30, 100, and 1000 dilutions.

[5] = tested on: herpes simplex virus (HSV); test: Herpes simplex virus plaque assay on CV-1 cells; settings: in vitro tests
Method: The first step of this assay models what happens inside the vaginal cavity. In this part of the assay, the candidate anti-viral agent (such as a zinc salt) was mixed and incubated for a relatively brief period with HIV particles. […] In subsequent tests using herpes viruses (which are much easier to work with than HIV), a range of first-stage incubation times were tested, ranging from 2 hours to only 5 minutes.
Susceptible lymphocyte cells were then added to this mixture, and a second incubation step was carried out for a number of days (20 days or more, when HIV was tested; 3 days, when herpes viruses were tested in plaque assays) to determine whether zinc-treated or untreated viruses would infect the lymphocytes.
After those toxicity tests had been evaluated, the viral inhibition tests were done on CV-1 cells, an immortalized cell line originally from a monkey kidney, which is highly and reliably susceptible to herpes virus infection, and which is widely used in in vitro tests on herpes viruses.
Tests were also carried out using a range of zinc salt concentrations, from 50 mM down to 5 mM, using constant 2 hour incubation periods.

Compound: [Cl-].[Cl-].[Zn+2] [Zinc chloride]
- irritation in initial tests [1]: significant irritation
- ionization rate [2]: ~100%
- burning, forearm (forearm): immediately caused a burning sensation

Compound: O=C[O-].O=C[O-].[Zn+2] [Zinc formate]
- Reported pK values: pK1 ([2]; in water): 0.6
- Reported pK values: pK2 ([2]; in water): 0.95

Compound: O=C(O)CO.O=C(O)CO.[Zn] [Zinc glycolate]
- Reported pK values ([2]; in water): 1.92

Compound: CC(O)C(=O)[O-].CC(O)C(=O)[O-].[Zn+2] (stereo not shown) [Zinc lactate]
- irritation during intercourse [1]: no irritation of any sort
- MCC (several cell lines): ~200 mM
- Reported pK values ([2]; in water): 1.86
- pH of solution (rounded) [3]: about 6.2
- pH of solution [3]: 6.16

Compound: CCC(=O)[O-].CCC(=O)[O-].[Zn+2] [Zinc propionate]
- irritation of gel / genital lubricant formulations [1]: did not cause any irritation
- irritation, vagina (vagina): vaginal irritation
- irritation, vagina / female genitals (vagina): no irritation
- Reported pK values ([2]; in water): 1.01
- irritation, male genital skin (male genitals): no irritation
- irritation, male genitals (male genitals): did not cause any irritation
- irritation, urethra (male genitals): substantial irritation
- burning and irritation to the skin (forearm): substantial amount of burning and irritation to the skin
- irritation, forearm (forearm): no irritation

Compound: O=S(=O)([O-])[O-].[Zn+2] [Zinc sulfate]
- irritation in initial tests [1]: significant irritation
- irritation, human volunteers [1]: no noticeable irritation
- irritation (prior art / known) ([4]; human, in vivo): substantial burning and irritation in most people
- irritation, person, passive test (vagina): tingling, burning sensation
- ionization rate [2]: ~100%
- irritation, male genital skin (male genitals): did not cause any irritation
- irritation, urethra (male genitals): did not cause any irritation
- acidity relative to zinc acetate or lactate solution ([3]; 5% solutions): about 4 times
- pH drop relative to zinc acetate or lactate solution ([3]; 5% solutions, from 6.2 to 5.6): 0.6
- pH of solution (rounded) [3]: about 5.6
- pH of solution [3]: 5.58
- irritation, forearm (forearm): did not cause any irritation

Compound: [Zn+2] [zinc]
- effect on physical irritation caused by nonoxynol [1]: can actually reduce the physical irritation that is caused by nonoxynol
- effect on sperm respiratory activity and motility (sperm cells): suppresses the respiratory activity and motility of sperm cells
- toxicity to lymphocytes (H-9 lymphocytes): toxic to lymphocytes

Compound: Zinc butyrate
- Reported pK values ([2]; in water): 1.00

Compound: Zinc gluconate
- abrasion during intercourse [1]: no abrasion was noticeable
- MCC (several cell lines): ~200 mM
- anti-viral effect against herpes viruses [5]: clearly effective in preventing infection by herpes viruses
- irritation, vagina / female genitals (vagina): no irritation
- Reported pK values ([2]; in water): 1.70
- irritation, male genitals (male genitals): no irritation
- irritation, forearm (forearm): no irritation

Compound: Zinc glycerate
- Reported pK values ([2]; in water): 1.80

Compound: nonoxynol
- irritation (prior art / known) ([4]; literature or general knowledge): cause irritation in many users

Compound: octoxynol
- irritation (prior art / known) ([4]; human, in vivo): cause irritation in many users
